# Test results published in ChEMBL document CHEMBL4308841, “Synthesis, in vitro antiproliferative activity, and kinase inhibitory effects of pyrazole-containing diarylureas and diarylamides” (Eur J Med Chem, 2018).
# How the values were obtained:
# COLO 205 [1] = experiment: Growth inhibition of human COLO205 cells assessed as cell growth at 100 uM incubated for 48 hrs by sulforhodamine B assay relative to control; assay type: functional; details: COLO 205, 48 h, read-out: Activity
# MOLT-4 = experiment: Growth inhibition of human MOLT4 cells assessed as cell growth at 1 uM incubated for 48 hrs by sulforhodamine B assay relative to control; assay type: functional; details: MOLT-4, 48 h, read-out: Activity
# CAKI-1 = experiment: Growth inhibition of human Caki1 cells assessed as cell growth at 100 uM incubated for 48 hrs by sulforhodamine B assay relative to control; assay type: functional; details: CAKI-1, 48 h, read-out: Activity
# OVCAR-8 = experiment: Growth inhibition of human OVCAR8 cells assessed as cell growth at 100 uM incubated for 48 hrs by sulforhodamine B assay relative to control; assay type: functional; details: OVCAR-8, 48 h, read-out: Activity
# A498 = experiment: Growth inhibition of human A498 cells assessed as cell growth at 0.01 uM incubated for 48 hrs by sulforhodamine B assay relative to control; assay type: functional; details: A498, 48 h, read-out: Activity
# COLO 205 [2] = experiment: Growth inhibition of human COLO205 cells incubated for 48 hrs by sulforhodamine B assay; assay type: functional, cell-based; details: COLO 205, 48 h
# SN12C = experiment: Growth inhibition of human SN12C cells incubated for 48 hrs by sulforhodamine B assay; assay type: functional, cell-based
# NCI/ADR-RES = experiment: Growth inhibition of human NCI/ADR-RES cells assessed as cell growth at 1 uM incubated for 48 hrs by sulforhodamine B assay relative to control; assay type: functional; details: read-out: Activity
# NCI-H460 = experiment: Growth inhibition of human NCI-H460 cells assessed as cell growth at 1 uM incubated for 48 hrs by sulforhodamine B assay relative to control; assay type: functional; details: NCI-H460, 48 h, read-out: Activity
# SNB-75 = experiment: Growth inhibition of human SNB75 cells incubated for 48 hrs by sulforhodamine B assay; assay type: functional, cell-based; details: SNB-75, 48 h
# UACC-257 [3] = experiment: Growth inhibition of human UACC257 cells assessed as cell growth at 0.01 uM incubated for 48 hrs by sulforhodamine B assay relative to control; assay type: functional; details: UACC-257, 48 h, read-out: Activity
# Malme-3M [4] = experiment: Growth inhibition of human MALME-3M cells assessed as cell growth at 0.1 uM incubated for 48 hrs by sulforhodamine B assay relative to control; assay type: functional; details: read-out: Activity
# ACHN = experiment: Growth inhibition of human ACHN cells assessed as cell growth at 1 uM incubated for 48 hrs by sulforhodamine B assay relative to control; assay type: functional; details: read-out: Activity
# SK-MEL-2 = experiment: Growth inhibition of human SK-MEL-2 cells assessed as cell growth at 0.1 uM incubated for 48 hrs by sulforhodamine B assay relative to control; assay type: functional; details: SK-MEL-2, 48 h, read-out: Activity
# SF-295 [5] = experiment: Growth inhibition of human SF295 cells incubated for 48 hrs by sulforhodamine B assay; assay type: functional, cell-based; details: SF-295, 48 h
# UACC-257 [6] = experiment: Growth inhibition of human UACC257 cells assessed as cell growth at 0.1 uM incubated for 48 hrs by sulforhodamine B assay relative to control; assay type: functional; details: UACC-257, 48 h, read-out: Activity
# T47D = experiment: Growth inhibition of human T47D cells assessed as cell growth at 0.1 uM incubated for 48 hrs by sulforhodamine B assay relative to control; assay type: functional; details: read-out: Activity
# RPMI-8226 = experiment: Growth inhibition of human RPMI8226 cells assessed as cell growth at 100 uM incubated for 48 hrs by sulforhodamine B assay relative to control; assay type: functional; details: RPMI-8226, 48 h, read-out: Activity
# MDA-MB-231 [7] = experiment: Growth inhibition of human MDA-MB-231 cells assessed as cell growth at 0.1 uM incubated for 48 hrs by sulforhodamine B assay relative to control; assay type: functional; details: MDA-MB-231, 48 h, read-out: Activity
# IGROV-1 = experiment: Growth inhibition of human IGROV1 cells incubated for 48 hrs by sulforhodamine B assay; assay type: functional, cell-based; details: IGROV-1, 48 h
# SF-295 [8] = experiment: Growth inhibition of human SF295 cells assessed as cell growth at 100 uM incubated for 48 hrs by sulforhodamine B assay relative to control; assay type: functional; details: SF-295, 48 h, read-out: Activity
# OVCAR-3 = experiment: Growth inhibition of human OVCAR3 cells assessed as cell growth at 1 uM incubated for 48 hrs by sulforhodamine B assay relative to control; assay type: functional; details: OVCAR-3, 48 h, read-out: Activity
# NCI-H226 = experiment: Growth inhibition of human NCI-H226 cells assessed as cell growth at 1 uM incubated for 48 hrs by sulforhodamine B assay relative to control; assay type: functional; details: NCI-H226, 48 h, read-out: Activity
# Malme-3M [9] = experiment: Growth inhibition of human MALME-3M cells assessed as cell growth at 0.01 uM incubated for 48 hrs by sulforhodamine B assay relative to control; assay type: functional; details: read-out: Activity
# SR = experiment: Growth inhibition of human SR cells assessed as cell growth at 100 uM incubated for 48 hrs by sulforhodamine B assay relative to control; assay type: functional; details: read-out: Activity
# OVCAR-5 [10] = experiment: Growth inhibition of human OVCAR5 cells assessed as cell growth at 100 uM incubated for 48 hrs by sulforhodamine B assay relative to control; assay type: functional; details: OVCAR-5, 48 h, read-out: Activity
# OVCAR-5 [11] = experiment: Growth inhibition of human OVCAR5 cells incubated for 48 hrs by sulforhodamine B assay; assay type: functional, cell-based; details: OVCAR-5, 48 h
# MDA-MB-231 [12] = experiment: Growth inhibition of human MDA-MB-231 cells assessed as cell growth at 0.01 uM incubated for 48 hrs by sulforhodamine B assay relative to control; assay type: functional; details: MDA-MB-231, 48 h, read-out: Activity
# HCT-15 = experiment: Growth inhibition of human HCT15 cells assessed as cell growth at 100 uM incubated for 48 hrs by sulforhodamine B assay relative to control; assay type: functional; details: HCT-15, 48 h, read-out: Activity
# NCI-H522 = experiment: Growth inhibition of human NCI-H522 cells assessed as cell growth at 1 uM incubated for 48 hrs by sulforhodamine B assay relative to control; assay type: functional; details: NCI-H522, 48 h, read-out: Activity
# [13] = read-out: LC50 (the source's name)
# [14] = read-out: pLC50 (the source's name) (converted)
smiles,measurement,setting,value
COc1cc(Cl)cc(-c2nn(-c3cccc(NC(=O)c4cccc(C(F)(F)F)c4)c3)cc2-c2ccncc2)c1,growth at 100 µM,COLO 205 [1],45%
same,growth at 1 µM,MOLT-4,72%
same,growth at 100 µM,CAKI-1,21%
same,growth at 100 µM,OVCAR-8,41%
same,growth at 0.01 µM,A498,58%
same,GI50,COLO 205 [2]; read-out: GI50,3.37 µM
same,CC50,COLO 205 [2]; [13],> 100 µM
same,TGI,COLO 205 [2]; read-out: TGI,> 100 µM
same,GI50,COLO 205 [2]; read-out: pGI50 (converted),33.9 µM
same,CC50,COLO 205 [2]; [14],> 100 µM
same,TGI,COLO 205 [2]; read-out: pTGI (converted),> 100 µM
same,GI50,SN12C; read-out: GI50,> 100 µM
same,LC50,SN12C; read-out: LC50,> 100 µM
same,TGI,SN12C; read-out: TGI,> 100 µM
same,GI50,SN12C; read-out: pGI50 (converted),> 100 µM
same,LC50,SN12C; read-out: pLC50 (converted),> 100 µM
same,TGI,SN12C; read-out: pTGI (converted),> 100 µM
same,growth at 1 µM,NCI/ADR-RES,89%
same,growth at 1 µM,NCI-H460,93%
same,GI50,SNB-75; read-out: GI50,5.52 µM
same,CC50,SNB-75; [13],> 100 µM
same,TGI,SNB-75; read-out: TGI,> 100 µM
same,GI50,SNB-75; read-out: pGI50 (converted),7.08 µM
same,CC50,SNB-75; [14],> 100 µM
same,TGI,SNB-75; read-out: pTGI (converted),> 100 µM
same,growth at 0.01 µM,UACC-257 [3],91%
same,growth at 0.1 µM,Malme-3M [4],90%
same,growth at 1 µM,ACHN,54%
same,growth at 0.1 µM,SK-MEL-2,95%
same,CC50,SF-295 [5]; [13],> 100 µM
same,TGI,SF-295 [5]; read-out: TGI,> 100 µM
same,GI50,SF-295 [5]; read-out: pGI50 (converted),3.89 µM
same,CC50,SF-295 [5]; [14],> 100 µM
same,TGI,SF-295 [5]; read-out: pTGI (converted),> 100 µM
same,growth at 0.1 µM,UACC-257 [6],91%
same,growth at 0.1 µM,T47D,101%
same,growth at 100 µM,RPMI-8226,22%
same,growth at 0.1 µM,MDA-MB-231 [7],90%
same,GI50,IGROV-1; read-out: GI50,> 100 µM
same,CC50,IGROV-1; [13],> 100 µM
same,TGI,IGROV-1; read-out: TGI,> 100 µM
same,GI50,IGROV-1; read-out: pGI50 (converted),> 100 µM
same,CC50,IGROV-1; [14],> 100 µM
same,TGI,IGROV-1; read-out: pTGI (converted),> 100 µM
same,growth at 100 µM,SF-295 [8],35%
same,growth at 1 µM,OVCAR-3,102%
same,growth at 1 µM,NCI-H226,54%
same,growth at 0.01 µM,Malme-3M [9],58%
same,growth at 100 µM,SR,15%
same,growth at 100 µM,OVCAR-5 [10],59%
same,GI50,OVCAR-5 [11]; read-out: GI50,> 100 µM
same,CC50,OVCAR-5 [11]; [13],> 100 µM
same,TGI,OVCAR-5 [11]; read-out: TGI,> 100 µM
same,GI50,OVCAR-5 [11]; read-out: pGI50 (converted),> 100 µM
same,CC50,OVCAR-5 [11]; [14],> 100 µM
same,TGI,OVCAR-5 [11]; read-out: pTGI (converted),> 100 µM
same,growth at 0.01 µM,MDA-MB-231 [12],102%
same,growth at 100 µM,HCT-15,28%
same,growth at 1 µM,NCI-H522,54%
